The text below walks through data of the supplement of paper PMC11208160.
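Further: IS621 recombinase and bridge RNA in Escherichia coli cells.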

This data set can be described thus: recombinant barcode read abundance after kanamycin selection (control-corrected) (log10(CPM+1)); higher = more efficient recombination; sequences stand for … in AGTGCAGAGAAAATCGGCCAGTTTTCTCTGCCTGCAGTCCGCATGCCGT…AGATTTATGCAGCGGACTGCCTTTCTCCCAAAGTGATAAACCGGACAGTATCATGGACCGGTTTTCCCGGTAATCCGTATTTGCAAGGTTGGTTTCACT; site = the 11-nt target. In outline: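 Pooled oligos, each joining a target to an IS621 bridge RNA target-binding loop, were cloned and co-electroporated with a donor plasmid into E. coli. Selective plates carried chloramphenicol/ampicillin/kanamycin and 0.1 mM IPTG, while chloramphenicol/ampicillin LB agar served as control, with two replicates of each. Recombination efficiency rests on averaged, control-corrected counts per million of barcodes at recombinant junctions, shown as log10(CPM+1).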
On to “AGAGCGACTTGGGTTCTAACCTGTTGCTA (site CTCTACCCTCT)”, for which the “recombinant barcode read abundance (log10)” value came to 0.147.
To “AGAGCTCCTTGGGTTCTAACCTGTTGCCG (site AGAGCTCCTCG)” belongs 1.03; to “AGAGCTCCTTGGGTTCTAACCTGTTGCCG (site AGATCTCCTAG)”, 0.468.
Consider “AGAGGAGCTTGGGTTCTAACCTGTTGCAG (site AGAGATGCTCT)”, for which the “recombinant barcode read abundance (log10)” value is 0.115.
For “AGAGGAGCTTGGGTTCTAACCTGTTGCAG (site AGAGGAGCTCT)” the value was 1.79; for “AGAGGGACTTGGGTTCTAACCTGTTGCCT (site AGAGAGACTAG)”, 1.25.
For the sequence “AGAGGGACTTGGGTTCTAACCTGTTGCCT (site AGAGCGACTAG)”, the “recombinant barcode read abundance (log10)” value amounted to 0.0189.
To “AGAGGGACTTGGGTTCTAACCTGTTGCCT (site AGAGGGACTAG)” belongs 2.34; to “AGAGGGACTTGGGTTCTAACCTGTTGCCT (site AGAGTGACTAG)”, 0.0172; to “AGAGTAGCTTGGGTTCTAACCTGTTGCAC (site AGAGTAGCTGT)”, 2.41.
For “AGAGTAGCTTGGGTTCTAACCTGTTGCAC (site GTTTATACTTG)” the value was 0.0243; for “AGAGTAGCTTGGGTTCTAACCTGTTGCTA (site AGAGTAGCTTA)”, 1.31; for “AGAGTAGCTTGGGTTCTAACCTGTTGCTA (site CTCCCGACTGC)”, 0.0353.
As to “AGATAGCCTTGGGTTCTAACCTGTTGCCT (site AGATAGCCTAG)”, the “recombinant barcode read abundance (log10)” value turned out to be 2.01.
For “AGATAGCCTTGGGTTCTAACCTGTTGCCT (site CGATAGCCTAG)” the value was 0.102.
For “AGATAGCCTTGGGTTCTAACCTGTTGCCT (site GGATAGCCTAG)” the value was 0.157; for “AGATAGCCTTGGGTTCTAACCTGTTGCCT (site TGATAGCCTAG)”, 0.206.
For “AGATCCACTTGGGTTCTAACCTGTTGCCT (site AGATCCACTAG)” the value was 0.832; for “AGATCCACTTGGGTTCTAACCTGTTGCCT (site CGATCCACTAG)”, 0.0967.
Regarding “AGATCCACTTGGGTTCTAACCTGTTGCCT (site GGATCCACTAG)”, the “recombinant barcode read abundance (log10)” value came to 0.0847.
For the sequence “AGATCCACTTGGGTTCTAACCTGTTGCCT (site TGATCCACTAG)”, the “recombinant barcode read abundance (log10)” value is 0.0724.
Take “AGATGGACTTGGGTTCTAACCTGTTGCAG (site AGATGGACTCT)”: the “recombinant barcode read abundance (log10)” value is 2.52.
For “AGATGGACTTGGGTTCTAACCTGTTGCAG (site AGATGGCCTAT)” the value was 0.0344.
To “AGATTCGCTTGGGTTCTAACCTGTTGCCG (site AGATTCCCTCG)” belongs 0.0487; to “AGATTCGCTTGGGTTCTAACCTGTTGCCG (site AGATTCGCTCG)”, 0.941; to “AGATTTACTTGGGTTCTAACCTGTTGCCT (site AAACTTACTAG)”, 1.28.
Turning to “AGATTTACTTGGGTTCTAACCTGTTGCCT (site AGATTTACTAG)”, the “recombinant barcode read abundance (log10)” value worked out at 0.143.
To “AGCACGACTTGGGTTCTAACCTGTTGCTG (site AGCACGACTCA)” belongs 0.684.
To “AGCACGACTTGGGTTCTAACCTGTTGCTG (site AGCAGGACTCG)” belongs 0.157; to “AGCAGAGCTTGGGTTCTAACCTGTTGCTG (site AGCAGAGCTCA)”, 1.39; to “AGCAGAGCTTGGGTTCTAACCTGTTGCTG (site AGCAGAGCTCC)”, 1.94.
To “AGCAGAGCTTGGGTTCTAACCTGTTGCTG (site AGCAGAGCTCG)” belongs 0.133.
